From patent US9204640B2, “2-acyloxy-pyrrolin-4-ones” (BAYER INTELLECTUAL PROPERTY GMBH, priority 2011, dated 2015)

Tests used:
Type in all cases: in vivo
Tetranychus urticae = experiment: Tetranychus test (TETRUR spray treatment; OP-resistant in Example 10); details: for effect in % (spider mites killed): after 5 days, bean leaf discs
Method: Tetranychus Test (TETRUR Spray Treatment)
To produce a suitable preparation of active compound, 1 part by weight of active compound is mixed with the stated amount of solvent and emulsifier, and the concentrate is diluted with emulsifier-containing water to the desired concentration. Discs of bean leaves (Phaseolus vulgaris) which are infested by all stages of the greenhouse red spider mite (Tetranychus urticae) are sprayed with an active compound preparation of the desired concentration.
After 5 days, the effect in % is determined. 100% means that all of the spider mites have been killed; 0% means that none of the spider mites have been killed.
Tetranychus Test, OP-Resistant (TETRUR Spray Treatment)
To produce a suitable preparation of active compound, 1 part by weight of active compound is mixed with the stated amount of solvent and emulsifier, and the concentrate is diluted with emulsifier-containing water to the desired concentration.
Discs of bean leaves (Phaseolus vulgaris) which are infested by all stages of the greenhouse red spider mite (Tetranychus urticae) are sprayed with an active compound preparation of the desired concentration.
After the desired period of time, the activity in % is determined. 100% means that all of the spider mites have been killed; 0% means that none of the spider mites have been killed.

Myzus persicae = experiment: Myzus test (MYZUPE spray treatment); details: for effect in % (aphids killed): application rate 500 g/ha, after 5 days, Chinese cabbage leaf discs
Method: Myzus Test (MYZUPE Spray Treatment) [table] To produce a suitable preparation of active compound, 1 part by weight of active compound is mixed with the stated amount of solvent and emulsifier, and the concentrate is diluted with emulsifier-containing water to the desired concentration. Discs of Chinese cabbage (Brassica pekinensis) infected by all stages of the green peach aphid (Myzus persicae) are sprayed with an active compound preparation of the desired concentration. After 5 days, the effect in % is determined 100% means that all of the aphids have been killed; 0% means that none of the aphids have been killed. Myzus Test (MYZUPE Spray Treatment) To produce a suitable preparation of active compound, 1 part by weight of active compound is mixed with the stated amount of solvent and emulsifier, and the concentrate is diluted with emulsifier-containing water to the desired concentration. Discs of Chinese cabbage (Brassica pekinensis) infected by all stages of the green peach aphid (Myzus persicae) are sprayed with an active compound preparation of the desired concentration. After the desired period of time, the activity in % is determined. 100% means that all of the aphids have been killed; 0% means that none of the aphids have been killed.

Phaedon cochleariae = experiment: Phaedon test (PHAECO spray treatment); details: for effect in % (beetle larvae killed): application rate 500 g/ha, after 7 days, Chinese cabbage leaf discs; for inhibition at 100 g/ha: Phaedon cochleariae, 168 h, 7dat
Method: Phaedon Test ([…] Spray Treatment) [table] To produce a suitable preparation of active compound, 1 part by weight of active compound is mixed with the stated amount of solvent and emulsifier, and the concentrate is diluted with emulsifier-containing water to the desired concentration. Discs of Chinese cabbage (Brassica pekinensis) are sprayed with an active compound preparation of the desired concentration and, after drying, populated with larvae of the mustard beetle (Phaedon cochleariae). After 7 days, the effect in % is determined 100% means that all beetle larvae have been killed; 0% means that none of the beetle larvae have been killed. Phaedon Test ([…] Spray Treatment) To produce a suitable preparation of active compound, 1 part by weight of active compound is mixed with the stated amount of solvent and emulsifier, and the concentrate is diluted with emulsifier-containing water to the desired concentration. Discs of Chinese cabbage (Brassica pekinensis) are sprayed with an active compound preparation of the desired concentration and, after drying, populated with larvae of the mustard beetle (Phaedon cochleariae). After the desired period of time, the activity in % is determined. 100% means that all beetle larvae have been killed; 0% means that none of the beetle larvae have been killed.

Echinocloa crus-galli = experiment: Herbicidal post-emergence action, ECHCG
Method: (§1) 2. Herbicidal Post-Emergence Action
(§2) • Seeds of monocotyledonous and dicotyledonous weed and crop plants are placed in sandy loam in wood-fiber pots, covered with soil and cultivated in a greenhouse under good growth conditions. 2 to 3 weeks after sowing, the test plants are treated at the one-leaf stage. The test compounds, formulated as wettable powders (WP), are then, with a water application rate of 600 l/ha (converted), with 0.2% of wetting agent added, sprayed at various dosages onto the green parts of the plants. After the test plants have been kept in the greenhouse under optimum growth conditions for about 3 weeks, the activity of the preparations is rated visually in comparison to untreated controls (herbicidal activity in percent: 100% activity=the plants have died, 0% activity=like control plants). • In addition to the compounds mentioned above, the following compounds show an activity of 90-100% against Alopecurus myosuroides, Avena fatua, Digitaria sanguinalis, Echinocloa crus-galli, Lolium multiflorum, Setaria viridis and Sorghum halapense when applied by the post-emergence method at 320 g/ha: I-a-2, I-a-4, I-a-5, I-a-7, I-a-9, I-a-10, I-a-11, I-a-12, I-a-13, I-a-15. • In addition to the compounds mentioned above, the following compounds show an activity of 90-100% against Alopecurus myosuroides, Avena fatua, Echinocloa crus-galli, Lolium multiflorum and Setaria viridis when applied by the post-emergence method at 80 g/ha: I-a-1, I-b-2.
(§3) • Seeds of monocotyledonous and dicotyledonous weed plants and crop plants are placed in wood-fiber pots in sandy loam and covered with soil. The test compounds, formulated in the form of wettable powders (WP) or emulsion concentrates (EC), are then, as an aqueous suspension with a water application rate of 600-800 l/ha (converted), with 0.1-0.2% of wetting agent added, applied at various dosages to the surface of the covering soil. • After the treatment, the pots are placed in a greenhouse and kept under good growth conditions for the test plants. […] Herbicidal Post-Emergence Action (Post) • Seeds of monocotyledonous and dicotyledonous weed and crop plants are placed in sandy loam in wood-fiber pots, covered with soil and cultivated in a greenhouse under good growth conditions. 2-3 weeks (stages 10-13 according to the BBCH scale) after sowing, the test plants are treated at a height of 5-10 cm. The test compounds, formulated as wettable powders (WP) or emulsion concentrates (EC), are then, with a water application rate of 600-800 l/ha (converted), with 0.1-0.2% of wetting agent added, sprayed at various dosages onto the green parts of the plants.
(§4) AVEFA: Avena fatua LOLMU: Lolium multiflorum SETVI: Setaria viridis CHEAL: Chenopodium album VIOTR: Viola tricolor VERPE: Veronica persica ORYSA: Oryza sativa TRZAS: Triticum aestivum ZEAMX: Zea mays ALOMY: Alopecurus myosuroides DIGSA: Digitaria sanguinalis ECHCG: Echinocloa crus-galli SORHA: Sorghum halepense AVESA: Avena sativa AMARE: Amaranthus retroflexus SINAL: Sinapis alba STEME: Stellaria media

Boophilus microplus = Boophilus microplus test (BOOPMI injection); details: 20 μg/animal, after 7 days
Method: Boophilus Microplus Test (BOOPMI Injection) [table] To prepare an appropriate active compound formulation, 10 mg of active compound are mixed with 0.5 ml of solvent and the concentrate is diluted with solvent to the desired concentration. The solution of active compound is injected into the abdomen (Boophilus microplus), and the animals are transferred into dishes and kept in a climatized room. The activity is assessed by deposition of fertile eggs. After 7 days, the effect in % is determined. 100% means that none of the ticks has laid any fertile eggs.

Zea mays = experiment: Herbicidal post-emergence action, ZEAMX
Source text: as §3, §4

Oryza sativa = experiment: Herbicidal post-emergence action, ORYSA
Source text: as §3, §4

Triticum aestivum = experiment: Herbicidal post-emergence action, TRZAS
Source text: as §3, §4

Avena fatua = experiment: Herbicidal post-emergence action, AVEFA
Method: as §1, §2, §3, §4

Lolium multiflorum = experiment: Herbicidal post-emergence action, LOLMU
Method: as §1, §2, §3, §4

Alopecurus myosuroides = experiment: Herbicidal post-emergence action, ALOMY
Method: as §1, §2, §3, §4

Digitaria sanguinalis = experiment: Herbicidal post-emergence action, DIGSA; details: 80 g/ha
Method: as §1, §2, §3, §4

Sorghum halepense = experiment: Herbicidal post-emergence action, SORHA; details: for % Activity SORHA: 80 g/ha
Method: as §1, §2, §3, §4

Setaria viridis = experiment: Herbicidal post-emergence action, SETVI; details: 80 g/ha
Method: as §1, §2, §3, §4

CCC(C)(C)C(=O)OC1=C(c2cc(C)ccc2C)C(=O)N[C@]12CC[C@@H](OC)CC2
inhibition at 500 g/ha (Tetranychus urticae; Tetranychus urticae, 120 h, 500 g/ha, 5dat, OP-resistant): 0% | inhibition at 20 g/ha (Myzus persicae; Myzus persicae, 120 h, 20 g/ha, 5dat): 0%

CCCc1cc(Br)cc(Br)c1C1=C(OC(=O)C(C)(C)C)NC(C)(C)C1=O [I-a-11]
effect in % (beetle larvae killed) (Phaedon cochleariae): 83%

CCc1cc(Br)cc(C)c1C1=C(OC(=O)C(C)(C)C)NC2(CCC(OC)CC2)C1=O (centres unmarked) [I-a-5]
% Activity ECHCG (Echinocloa crus-galli; 20 g/ha): 80%

CCOC(=O)OC1=C(c2cc(C)ccc2C)C(=O)[C@@]2(CCC[C@H](COC)C2)N1 [I-b-1]
effect in % (spider mites killed) (Tetranychus urticae; application rate 100 g/ha): 100% | inhibition at 4 g/ha (Myzus persicae; Myzus persicae, 120 h, 5dat): 90% | effect in % (aphids killed) (Myzus persicae): 100% | inhibition at 100 g/ha (Phaedon cochleariae): 100% | effect in % (beetle larvae killed) (Phaedon cochleariae): 100% | efficacy in % (deposition of fertile eggs) (Boophilus microplus): 95%

CCOC(=O)OC1=C(c2cc(C)c(Cl)cc2C)C(=O)C2(CCC(COC)CC2)N1 (centres unmarked) [I-b-4]
effect in % (aphids killed) (Myzus persicae): 90%

CCc1cc(Cl)cc(OC)c1C1=C(OC(=O)C(C)C)C2(CCCCC2)NC1=O
% Activity ZEAMX (Zea mays; concentration 80 g/ha 20 g/ha): 20% | % Activity ORYSA (Oryza sativa; concentration 80 g/ha 20 g/ha): 0% | % Activity TRZAS (Triticum aestivum; concentration 80 g/ha 20 g/ha, first TRZAS column): 0% | % Activity TRZAS (Triticum aestivum; concentration 80 g/ha 20 g/ha, second TRZAS column): 0% | % Activity AVEFA (Avena fatua; concentration 80 g/ha 20 g/ha): 20% | % Activity LOLMU (Lolium multiflorum; concentration 80 g/ha 20 g/ha): 50% | % Activity ALOMY (Alopecurus myosuroides; concentration 80 g/ha 20 g/ha): 40%

CCc1cc(C)cc(Br)c1C1=C(OC(=O)C(C)C)NC(C)(C)C1=O [Example I-a-1]
effect in % (aphids killed) (Myzus persicae): 90% | effect in % (beetle larvae killed) (Phaedon cochleariae): 83%

CCc1cc(Br)cc(C)c1C1=C(OC(=O)C(C)(C)C)C2(CCC(OC)CC2)NC1=O (centres unmarked) [I-b-2 known from WO 05/006125]
inhibition at 20 g/ha (Echinocloa crus-galli; Echinochloa crus-galli, post-emergence, 20 g/ha): 50%

CCC(C)(C)C(=O)OC1=C(c2cc(C)ccc2C)C(=O)C2(CCC(OC)CC2)N1 (centres unmarked) [I-a-16]
% Activity TETRUR (Tetranychus urticae; 500 g/ha, 5dat, OP-resistant): 90% | effect in % (spider mites killed) (Tetranychus urticae; application rate 500 g/ha): 90% | % Activity MYZUPE (Myzus persicae; 20 g/ha, 5dat): 100% | effect in % (aphids killed) (Myzus persicae): 100%

CCOC(=O)OC1=C(c2c(CC)cc(C)cc2C2CC2)C(=O)C(C)(C)N1 [I-b-5]
effect in % (aphids killed) (Myzus persicae): 100%

CCOC(=O)OC1=C(c2cc(C)ccc2C)C(=O)N[C@@]12CCC[C@@H](COC)C2 [I-1-c-2 known from WO 07/048545]
inhibition at 4 g/ha (Myzus persicae; Myzus persicae, 120 h, 5dat): 0% | inhibition at 100 g/ha (Phaedon cochleariae): 50%

CCc1cc(Br)cc(Cl)c1C1=C(OC(=O)C(C)(C)C)C2(CCCCC2)NC1=O [I-b-41 known from WO 04/065366]
inhibition at 80 g/ha (Zea mays; Zea mays, post-emergence, 80 g/ha): 0% | inhibition at 80 g/ha (Echinocloa crus-galli; Echinochloa crus-galli, post-emergence, 80 g/ha): 80% | inhibition at 80 g/ha (Oryza sativa; Oryza sativa, post-emergence, 80 g/ha): 0% | inhibition at 80 g/ha (Digitaria sanguinalis; Digitaria sanguinalis, post-emergence): 0% | inhibition at 80 g/ha (Triticum aestivum; Triticum aestivum, post-emergence, 80 g/ha): 0% | inhibition at 80 g/ha (Avena fatua; Avena fatua, post-emergence, 80 g/ha): 0% | inhibition at 80 g/ha (Sorghum halepense; Sorghum halepense, post-emergence): 0% | inhibition at 80 g/ha (Lolium multiflorum; Lolium multiflorum, post-emergence, 80 g/ha): 0% | inhibition at 80 g/ha (Alopecurus myosuroides; Alopecurus myosuroides, post-emergence, 80 g/ha): 0% | inhibition at 80 g/ha (Setaria viridis; Setaria viridis, post-emergence): 0%

CCc1cc(Br)cc(Cl)c1C1=C(OC(=O)C(C)(C)C)NC2(CCCCC2)C1=O [I-a-14]
% Activity ZEAMX (Zea mays; 80 g/ha): 100% | % Activity ECHCG (Echinocloa crus-galli; 80 g/ha): 100% | % Activity ORYSA (Oryza sativa; 80 g/ha): 80% | effect in % (spider mites killed) (Tetranychus urticae; application rate 500 g/ha): 90% | effect in % (aphids killed) (Myzus persicae): 90% | % Activity DIGSA (Digitaria sanguinalis): 100% | % Activity TRZAS (Triticum aestivum; 80 g/ha): 90% | % Activity AVEFA (Avena fatua; 80 g/ha): 100% | % Activity SORHA (Sorghum halepense): 100% | % Activity SORHA (Sorghum halepense; second SORHA column): 90% | effect in % (beetle larvae killed) (Phaedon cochleariae): 100% | % Activity LOLMU (Lolium multiflorum; 80 g/ha): 100% | % Activity ALOMY (Alopecurus myosuroides; 80 g/ha): 80% | % Activity SETVI (Setaria viridis): 100% | efficacy in % (deposition of fertile eggs) (Boophilus microplus): 80%
